Reference: patent publication US10093629B2, “Heterocyclic compounds and their use as retinoid-related orphan receptor (ROR) gamma-T inhibitors” (Takeda Pharmaceutical Company Limited, priority 2014, dated 2018)
Where two headings read alike, the source gives them in different places.

Key:
RORγt [1] = target: T1, RORγt (Homo sapiens, UniProt P51449); assay: Jurkat reporter test (human IL-17 ROR response element luciferase, RORγt vector); type: cell-based; settings: test compound 3 μM, Jurkat cells, read-out: luminescence level inhibitory rate at test compound 3 μM
T1 sequence (P51449 1-497 isoform P51449-2): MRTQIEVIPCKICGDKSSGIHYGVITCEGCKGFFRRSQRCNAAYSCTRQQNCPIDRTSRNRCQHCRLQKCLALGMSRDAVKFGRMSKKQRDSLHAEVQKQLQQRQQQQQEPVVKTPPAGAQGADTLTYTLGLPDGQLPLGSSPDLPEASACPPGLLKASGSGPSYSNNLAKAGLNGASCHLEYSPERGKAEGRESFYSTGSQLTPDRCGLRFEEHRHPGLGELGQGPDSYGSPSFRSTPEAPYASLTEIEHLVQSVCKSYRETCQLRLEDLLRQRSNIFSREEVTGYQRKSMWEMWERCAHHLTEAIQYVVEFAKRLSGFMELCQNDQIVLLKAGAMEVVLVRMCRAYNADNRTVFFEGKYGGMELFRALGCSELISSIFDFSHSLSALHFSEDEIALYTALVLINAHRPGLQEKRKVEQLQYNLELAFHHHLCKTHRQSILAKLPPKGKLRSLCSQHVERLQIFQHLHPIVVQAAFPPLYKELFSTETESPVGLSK
Protocol: The Jurkat cells used for the reporter test were cultured in a culture medium (RPMI (Invitrogen), 10% FCS (AusGeneX), 100 U/mL penicillin, 100 μg/mL streptomycin). On the day of the test, 4×10^7 cells were recovered by a centrifugal operation (1000 rpm, 5 min.) and suspended in PBS (phosphate buffered saline) (Invitrogen). Thereafter, the cells were recovered again by a centrifugal operation, and suspended in 2 mL of R buffer (NEON transfection kit, Invitrogen). […] Gene transfer was performed by Electroporation apparatus (NEON, Invitrogen) under the conditions of pulse voltage 1350 V, interval 10 milliseconds, number of times 3. The cells after gene transfer were suspended in 40 mL of a reaction medium (RPMI, 10% Lipid reduced FCS (HyClone), 10 mM HEPES (pH 7.5), 100 U/mL penicillin, 100 μg/mL streptomycin, 5 μM lovastatin), and plated in a 96 well plate by 90 μL. A test compound diluted with the reaction medium was added by 10 μL, and the cells were cultured overnight in an incubator. Bright-Glo (Promega) was added by 100 μL, and the mixture was stirred at room temperature for 10 min, and the luminescence level was measured by Envision (PerkinElmer).

RORγt [2] = target: T1, RORγt; assay: Cofactor recruitment test (Alpha Screen, biotinylated SRC-1 peptide); type: biochemical; settings: read-out: signal value inhibitory rate at test compound 1 μM
Protocol: Cofactor Recruitment Test
Cofactor recruitment test was performed by Alpha Screen (Histidine Detection Kit, PerkinElmer) method. First, a test compound was diluted with an assay buffer (50 mM Tris-HCl (pH 7.5), 50 mM KCl, 1 mM DTT, 0.1% BSA) and added to a 384 well plate by 5 μL. […] The mixture was stood in a dark place for 1 hr, and the signal value was measured by Envision (PerkinElmer).

[3] = system: IL-17 production in human blood; assay: Effect on IL-17 production in human blood; type: cell-based; settings: 72 h; 10 μM test compound; human peripheral blood, IL-23 and Dynabeads stimulation, 3 days; read-out: percent inhibition at 10 μM (IL-17 production)
Protocol: Effect on IL-17 Production in Human Blood
The inhibitory effect of the test compound on IL-17 production in human blood was evaluated as follows. First, 150 μL of peripheral blood collected from healthy individuals using heparinized vacuum blood collection tubes was dispensed into each well of a 96-well plate (Corning), and 45 μL of RPMI 1640 medium (Gibco) containing 10% fetal bovine serum (FBS, Hyclone) and 30 μL of the test compound diluted with the medium were added to each well. The plate was then cultured for 30 min at 37° C. The cells were subsequently stimulated by adding 30 μL of 100 ng/mL human IL-23 (R&D) and 45 μL of Dynabeads Human (Invitrogen) to each well and culturing the plate for 3 days at 37° C. In wells without stimulation, 75 μL of RPMI 1640 medium containing 10% FBS was added instead of the IL-23 and Dynabeads solution. After culturing for 3 days, the culture supernatant was collected, and the amount of IL-17 in the supernatant was measured using an IL-17 ELISA kit (R&D).
The results (percent inhibition of IL-17 production with 10 μM of the test compound) measured by the above-mentioned method are shown in Table 8.

IL-17A gene expression = assay: Effect on IL-23-induced cytokine expression in mice; type: in vivo, mouse; settings: 10 mg/kg oral, 30 min before and 8 hr after IL-23; ear of Balb/c mice; versus the negative control group
Protocol: Effect on IL-23-Induced Cytokine Expression in Mice
A mouse IL-23 solution (500 ng/10 μL, prepared by Takeda Pharmaceutical Company Limited) or PBS (10 μL, negative control group) was administered intradermally in the ear of Balb/c mice (Charles River Japan, male, 7 weeks old). Twenty-four hr after administration, the ear was resected under isoflurane anesthesia. The test compound was suspended in 0.5% methylcellulose and administered orally 30 min before and 8 hr after IL-23 administration.
RNA extraction from the ear tissue and quantitative PCR were performed as follows. Specifically, ear tissue 5 mm in diameter was punched from an area of the resected ear centering on the IL-23 injection site, and the tissue was immersed in RNAlater (QIAGEN) for at least 18 hr. The RNAlater-treated ear tissue was homogenized in 350 μL of RLT buffer (RNeasy mini kit, QIAGEN) and treated (55° C., 10 min) with Proteinase K (QIAGEN). Total RNA was then extracted according to the RNeasy mini kit protocol. The RNA thus obtained was then reverse transcribed into cDNA using the High-Capacity RNA-to-cDNA kit (Applied Biosystems), and the amount of each gene expressions was measured by real-time PCR (Viia7™, Applied Biosystems). The PCR buffer used was TaqMan Fast Advanced Master Mix (Applied Biosystems), and TaqMan Gene Expression Assays (Applied Biosystems) Mm00439618_m1 (IL-17A) and 4352341E (β-actin) were used for each gene detection. The IL-17A gene expression level was normalized to the β-actin gene expression level, and the percent inhibition of IL-17A gene expression with the test compound was then calculated.
The results (percent inhibition of IL-17A gene expression with oral administration of the test compound) measured by the above-mentioned method are shown in Table 9.

RORγt [4] = target: T1, RORγt; assay: RORγt binding test using fluorescent-labeled synthetic ligand (TR-FRET); settings: read-out: binding inhibitory rate of fluorescent-labeled synthetic ligand to RORγt at test compound 1 μM
Protocol: RORγt Binding Test using Fluorescent-Labeled Synthetic Ligand
The binding activity of the test compound to RORγt was measured by a time resolved fluorescence resonance energy transfer method (TR-FRET) utilizing histidine-tagged RORγt, fluorescent-labeled synthetic ligand and terbium-labeled anti-histidine tag antibody (Invitrogen). First, a test compound diluted with an assay buffer (20 mM Tris-HCl (pH 7.5), 100 mM NaCl, 1 mM DTT, 0.1% BSA) was added to a 384 well plate by 3 μL. Then, RORγt diluted with an assay buffer to 240 nM was added by 3 μL, after which fluorescent-labeled synthetic ligand diluted with the assay buffer to 12 μM was added by 3 μL, and the mixture was stood at room temperature for 20 min. Thereafter, a terbium-labeled anti-histidine tag antibody diluted with the assay buffer to 8 nM was added by 3 μL. The mixture was stood at room temperature for 20 min, and fluorescence intensity (excitation wavelength 320 nm, fluorescence wavelength 520 nm, delay time 100 microseconds) was measured by Envision (PerkinElmer).

| inhibition at 3 µM (RORγt [1]; Jurkat) [%] | inhibition at 1 µM (RORγt [2]; test compound 1 μM) [%] | inhibition at 1 µM (RORγt [4]; test compound 1 μM) [%] | SMILES | inhibition at 3 µM (RORγt [1]) [%] | inhibition at 1 µM (RORγt [2]) [%] | inhibition at 10 µM [3] [%] | percent inhibition of IL-17A gene expression (IL-17A gene expression) [%] | inhibition at 1 µM (RORγt [4]) [%] |
| --- | --- | --- | --- | --- | --- | --- | --- | --- |
| – | – | – | COc1ccc2c(c1)CCN(C(=O)C1CC(CC(=O)O)C1)[C@H]2C(=O)Nc1cc(F)c([Si](C)(C)C)c(F)c1 (stereo partly drawn) [Example 4, (3-(((1R)-1-((3,5-difluoro-4-(trimethylsilyl)phenyl)carbamoyl)-6-methoxy-3,4-dihydroisoquinolin-2(1H)-yl)carbonyl)cyclobutyl)acetic acid] | 100 | 94 | 88.3 | 86 | 102 |
| – | – | – | COc1ccc2c(c1)CCN(C(=O)[C@H]1C[C@@H](C(=O)O)C1)[C@H]2C(=O)Nc1cc(F)c([Si](C)(C)C)c(F)c1 [Example 5, cis-3-(((1R)-1-((3,5-difluoro-4-(trimethylsilyl)phenyl)carbamoyl)-6-methoxy-3,4-dihydroisoquinolin-2(1H)-yl)carbonyl)cyclobutanecarboxylic acid] | 100 | 93 | 88.6 | 57 | 102 |
| – | – | – | CCOc1ccc2c(c1)CCN(C(=O)[C@H]1C[C@@H](C(=O)O)C1)[C@H]2C(=O)Nc1cc(F)c([Si](C)(C)C)c(F)c1 [Example 8, cis-3-(((1R)-1-((3,5-difluoro-4-(trimethylsilyl)phenyl)carbamoyl)-6-ethoxy-3,4-dihydroisoquinolin-2(1H)-yl)carbonyl)cyclobutanecarboxylic acid] | 100 | 90 | 82.9 | 72 | 102 |
| – | – | – | COc1ccc2c(n1)CCN(C(=O)[C@H]1C[C@@H]1CC(=O)O)[C@H]2C(=O)Nc1cc(F)c([Si](C)(C)C)c(F)c1 [Example 13, ((1R,2S)-2-(((5R)-5-((3,5-difluoro-4-(trimethylsilyl)phenyl)carbamoyl)-2-methoxy-7,8-dihydro-1,6-naphthyridin-6(5H)-yl)carbonyl)cyclopropyl)acetic acid] | 104 | 83 | – | 91 | 102 |
| 97 | 70 | 101 | CCOCC(C)(C)c1c(F)cc(NC(=O)[C@H]2c3ccc(OCC)cc3CCN2C(=O)[C@H]2C[C@@H](CC(=O)O)C2)cc1F [Example 18, (cis-3-(((1R)-6-ethoxy-1-((4-(1-ethoxy-2-methylpropan-2-yl)-3,5-difluorophenyl)carbamoyl)-3,4-dihydroisoquinolin-2(1H)-yl)carbonyl)cyclobutyl)acetic acid] | – | – | 80 | – | – |
| – | – | – | COc1ccc2c(n1)CCN(C(=O)[C@H]1C[C@H](CC(=O)O)C1)[C@H]2C(=O)Nc1cc(F)c2c(c1)CCC2(C)C [Example 20, (trans-3-(((5R)-5-((7-fluoro-1,1-dimethyl-2,3-dihydro-1H-inden-5-yl)carbamoyl)-2-methoxy-7,8-dihydro-1,6-naphthyridin-6(5H)-yl)carbonyl)cyclobutyl)acetic acid] | – | – | – | 99 | – |
| 101 | 80 | 101 | COCc1ccc2c(c1)CCN(C(=O)[C@H]1C[C@H](CC(=O)O)C1)[C@H]2C(=O)Nc1cc(F)c2c(c1)CCC2(C)C [Example 24, (trans-3-(((1R)-1-((7-fluoro-1,1-dimethyl-2,3-dihydro-1H-inden-5-yl)carbamoyl)-6-(methoxymethyl)-3,4-dihydroisoquinolin-2(1H)-yl)carbonyl)cyclobutyl)acetic acid] | – | – | 92.7 | – | – |
| – | – | – | COc1ccc2c(c1)CCN(C(=O)[C@H]1C[C@@H](CC(=O)O)C1)[C@H]2C(=O)Nc1cc(F)c([Si](C)(C)C)c(F)c1 [Example 25, (cis-3-(((1R)-1-((3,5-difluoro-4-(trimethylsilyl)phenyl)carbamoyl)-6-methoxy-3,4-dihydroisoquinolin-2(1H)-yl)carbonyl)cyclobutyl)acetic acid] | 101 | 93 | – | 92 | 102 |
| – | – | – | COc1ccc2c(c1)CCN(C(=O)[C@H]1C[C@@H](C(=O)O)C1)[C@H]2C(=O)Nc1ccc([Si](C)(C)C)c(F)c1 [Example 32, cis-3-(((1R)-1-((3-fluoro-4-(trimethylsilyl)phenyl)carbamoyl)-6-methoxy-3,4-dihydroisoquinolin-2(1H)-yl)carbonyl)cyclobutanecarboxylic acid] | 101 | 91 | – | 83 | 102 |
